Laboratory results from patent publication US20110053835A1, “ANTIMICROBIAL PEPTIDES DERIVED FROM CAP18” (OctoPlus Sciences B.V., priority 2004, published 2011).
≈ marks a conversion by molar mass, not a printed value. Like-named read-outs stand apart in the source and are kept apart here. Marks after values point to notes of the source that are not given here.

Tests used:
LPS [1] = assay: LPS neutralization, limulus amoebocyte lysate (LAL) assay; type: biochemical; settings: ± SD
Experimental: (§1) The compounds prepared according to example 1 were tested for their capability to neutralize the bacterial toxin LPS with a limulus amoebocyte lysate (LAL) assay and with a whole blood (WB) assay. LTA neutralization was also measured with a whole blood assay. Peptide LL-37 was used as a positive control. The peptide concentration whereby 50% LPS is neutralized was used as a measure of the peptide's activity. These concentration values were as in table 1. The differences between the compounds within each assay were not statistically significant.

LPS [2] = assay: LPS neutralization, whole blood (WB) assay; type: cell-based; settings: ± SD
Experimental: as §1

LTA = LTA neutralization, whole blood (WB) assay; type: cell-based; settings: ± SD
Experimental: as §1

[3] = test system: peripheral blood mononuclear cells (PBMC); assay: γ-IFN Elispot assay; type: cell-based; settings: fraction of positive stimulation indices (positive: >2), 48 hours of culture
Experimental: (§2) The compounds prepared according to example 1 were tested for their therapeutically undesirable immunogenic activity by using Elispot, T-cell proliferation, ERK-activation, and neutrophil chemotaxis assays. The Elispot assay is applicable to determine effects of drugs, chemicals or other compounds on cytokine secretion in vitro, thereby providing data on their putative modulatory effects on immune function in vivo. The results of the assay are given as fraction of positive responses to IFN-gamma. […] Cytokines are direct mediators of inflammation and influence the progress and direction of many immunological reactions. Perturbation of the balance in cytokine production is widely recognized as a critical factor in several disease states. This balance is already disturbed in the case of conditions such as otitis media with effusion and sinusitis. T. cell proliferation is also not favorable in this situation, because this will also stimulate the immune response that is already out of control.
(§3) For T cell proliferation, 150,000 peripheral blood mononuclear cells (PBMC) were cultured in the absence or presence of 10 μg/ml of the compounds for 5 days in 96 well round bottom plates (Costar Inc. Cambridge, Mass.) in a final volume of 150 μl IMDM complete. As a positive control, PBMC were cultured in the presence of 25 U/ml recombinant IL-2. During the final 20 hours of culture, PBMC were pulsed with [3H]thymidine (0.5 microCi/well), after which 3H-incorporation was measured by liquid scintillation counting. For detection of the T cell cytokines IFN and IL-10 by Elispot analysis, 1.5×10^6 PBMC were cultured in 0.5 ml IMDM complete in the absence or presence of various concentrations of synthetic peptide. As a positive control PBMC were stimulated by 10 μg/ml poke weed mitogen (PWM). After 48 hours of culture, PBMC were harvested by gently rinsing the wells with warm IMDM to collect non-adherent cells, which were washed in a large volume of IMDM. PBMC were subsequently plated on antibody-precoated ELISA plates and cultured for 5 hours in IMDM supplemented with 2% pooled human AB serum at 37° C. 5% CO2, after which the plates were developed according to the manufacturer's protocol (U-CyTech, Utrecht, The Netherlands), Spots were counted on an Olympus microscope and analyzed with Olympus Micro Image 4.0 software (Paes Nederland, Zoeterwoude, The Netherlands). The final results are expressed as fraction of positive stimulation indices (positive: >2).

[4] = test system: peripheral blood mononuclear cells (PBMC); assay: T cell proliferation ([3H]thymidine incorporation); type: cell-based; settings: fraction of positive stimulation indices (positive: >2), 10 μg/ml compound, 5 days
Experimental: as §2, §3

[5] = test system: neutrophils isolated from peripheral blood; assay: Neutrophil chemotaxis (modified Boyden chamber); type: cell-based; settings: percentage neutrophils on the membrane compared to positive control 10^−8 M FMLP; 90 minutes at 37° C.
Experimental: Neutrophils chemotaxis was measured with neutrophils isolated from peripheral blood using Percoll density centrifugation (density: 1.082 g/ml). The cells were resuspended at a concentration of 2.5×10^6 cells/ml in chemotaxis medium (20 mM N-2-hydroxyethylpiperazine-N′-2-ethanesulfonic acid (HEPES buffer) HEPES, 132 mM NaCl, 6 mM KCl, 1.2 mM KH2PO4, 1 mM MgSO4, 5.5 mM glucose, 0.1 mM CaCl2 and 0.5% (wt/vol) human serum albumm [Central Laboratory of the Netherlands Red Cross Blood Transfusion Service (CLB), Amsterdam, The Netherlands] diluted 1:1 with serum-free RPMI. The chemotactic activity of the compounds was assessed using a modified Boyden Camber technique. Briefly, 26 μl stimuli diluted in HEPES buffer was added to the wells of the lower compartment, and 50 μl of neutrophil suspension (2.5×10^6 cells/ml) was added to the upper compartment. The compartments were separated by two filters: a lower filter with a pore size of 0.45 μm (Millipore Products, Bedford, Mass.) and an upper filter with a pore size of 8 μm (Sartorius Filter, San Francisco, Calif.). After incubation for 90minutes at 37° C., the upper filters were removed, fixed in ethanol-butanol (80:20, vol/vol), and stained with Weigert solution. To determine neutrophil chemotactic activity, neutrophils were counted in six random high-power fields (×400), and the percentage neutrophils on the membrane as compared to the positive control (10^−8 M, N-formylmethionyl-leucyl-phenylalanine (FMLP, Sigma) was calculated.

[6] = test system: Aspergillus niger ATCC 14406
Experimental: (§4) The in vitro antibacterial and antifungal activity of P60.4-Ac and LL-37 were determined as the minimum inhibitory concentrations (MIC) by a microdilution susceptibility test in 96-well microtiter plates, according to a modified version of R. Hancock's “Modified MIC method for cationic antimicrobial peptides” [13]. The antibacterial activity was tested on the reference strains Escherichia coli ATCC 8739, Pseudmonas aeruginosa ATCC 9027. The antifungal activity was evaluated on Candida albicans ATCC 10231 and Aspergillus niger ATCC 14406. The antimicrobial activity assay was conducted with different concentrations of P60.4Ac and LL-37 to compare their effects on the bacterial or fungal growth. Antibacterial activity was examined using log-phase cultured bacteria in Trypticase Soy Broth at 37° C. The cultures were diluted with 10 mM Sodium Phosphate buffer pH 7.4 to give approximately 5.0×10^6 CFU/ml. 10 μl of the diluted test strain was transferred to a 96-well plate and 100 μl of the different peptide concentrations was added to each well. The plates were incubated at 37° C. for 24 hours and are then scored for growth by visual inspection on a light box. They are then returned for incubation for a further 24 hours after which time they are re-evaluated for growth. The yeast strain C. albicans was prepared as described above. The filamentous fungi A. niger was used as a spore suspension, cultured on Sabourauds Dextrose Agar plates at 20-25° C. for 6-10 days or until adequate sporulation has occurred. The spores were harvested by scrapping and if necessary the concentration was adjusted to a final concentration of 5×10^6 CFU/ml.

[7] = test system: Candida albicans ATCC 10231
Experimental: as §4

[8] = test system: Escherichia coli ATCC 8739; settings: mean of three determinations
Experimental: as §4

P. aeruginosa ATCC9027 = test system: P. aeruginosa ATCC9027
Experimental: as §4

rats = assay: Single and repeated dose intravenous systemic toxicity study; type: in vivo, rat
Experimental: The systemic toxicity of P60.4Ac was assessed in a single and repeated dose toxicity study in rats. The peptide was administered daily intravenously in escalating doses. In this phase, the Maximum Tolerated Dose (MTD) was established. Repeated dose toxicity was also studied in the MTD phase. In the dose escalation phase, 9 rate were divided in three groups and received 0.4, 2 or 8 mg/kg/day for two days. Clinical signs were recorded twice daily on days of dosing and one day after dosing, body weights were recorded prior to the first dose and one day after dosing. In the MTD phase, 5 female and 5 male rats received 8 mg/kg/day for 5 following days. Clinical signs were recorded twice daily on days of dosing, body weight on day 1 and 6. Clinical laboratory investigations were performed prior to necropsy. Macroscopy was performed at termination of the MTD phase.

guinea pigs = type: in vivo, guinea pig
Experimental: The skin was sutured closed and follow-up auditory testing was performed.
Auditory brainstem response (ABR) was performed prior to drug administration and directly after surgery and 3, 7, 14 and 22 days later, using a computer-based signal averaging system (Tucker-Davis Technology, Alucha, Fla., USA). Guinea pigs were anesthetized and an insert earphone was placed into the external ear canal. […] Ground electrodes were placed over the neck muscles. […] Stimulus intensities were measured and expressed as dB.

rabbits [9] = settings: 0.5 ml peptide solution 2 mg/ml on clipped skin for 4 hours, semi-occlusive; observed 1-72 hours
Experimental: (§5) For the skin and eye irritation tests, three rabbits were exposed to 0.5 ml phosphate buffered peptide solution (2 mg/ml), applied onto clipped skin for 4 hours using a semi-occlusive dressing. Observations were made 1, 24, 48, and 72 hours after exposure. Single samples of 0.1 ml of phosphate buffered (pH7.5) peptide solution (2 mg/ml) were instilled into one eye of each of three rabbits to perform an acute eye irritation/corrosion study. Observations were made 1, 24, 48, and 72 hours after instillation.

rabbits [10] = test system: rabbits
Experimental: as §5

[11] = A. niger ATCC14406, incubation 24 h
[12] = A. niger ATCC14406, incubation 48 h
[13] = C. albicans ATCC10231, incubation 24 h
[14] = C. albicans ATCC10231, incubation 48 h
[15] = E. coli ATCC8739, incubation 24 h
[16] = E. coli ATCC8739, incubation 48 h
[17] = P. aeruginosa ATCC9027, incubation 24 h
[18] = P. aeruginosa ATCC9027, incubation 48 h
[19] = intravenous, 8 mg/kg/day for 5 days
[20] = intravenous, 0.4, 2 or 8 mg/kg/day for two days

| Molecule | Compound concentration for 50% LPS-neutralization, LPS (LAL) (LPS [1]) | Compound concentration for 50% LPS-neutralization, LPS (WB) (LPS [2]) | Compound concentration for 50% LTA-neutralization, LTA (WB) (LTA) | γ-IFN Elispot [3] | T cell proliferation [4] | Chemotaxis (%) [5] | MIC [6, 11] | MIC [6, 12] | MIC [7, 13] | MIC [7, 14] | MIC [8, 15] | MIC [8, 16] | MIC (P. aeruginosa ATCC9027; [17]) | MIC (P. aeruginosa ATCC9027; [18]) | further results |
| --- | --- | --- | --- | --- | --- | --- | --- | --- | --- | --- | --- | --- | --- | --- | --- |
| CC[C@H](C)[C@H](NC(=O)[C@H](CCCCN)NC(=O)[C@H](CCC(=O)O)NC(=O)[C@H](CCCCN)NC(=O)[C@H](CO)NC(=O)[C@H](CCCCN)NC(=O)[C@H](CCCNC(=N)N)NC(=O)[C@H](Cc1ccccc1)NC(=O)[C@H](Cc1ccccc1)NC(=O)[C@H](CC(=O)O)NC(=O)CNC(=O)[C@H](CC(C)C)NC(=O)[C@@H](N)CC(C)C)C(=O)NCC(=O)N[C@@H](CCCCN)C(=O)N[C@@H](CCC(=O)O)C(=O)N[C@@H](Cc1ccccc1)C(=O)N[C@@H](CCCCN)C(=O)N[C@@H](CCCNC(=N)N)C(=O)N[C@H](C(=O)N[C@H](C(=O)N[C@@H](CCC(N)=O)C(=O)N[C@@H](CCCNC(=N)N)C(=O)N[C@H](C(=O)N[C@@H](CCCCN)C(=O)N[C@@H](CC(=O)O)C(=O)N[C@@H](Cc1ccccc1)C(=O)N[C@@H](CC(C)C)C(=O)N[C@@H](CCCNC(=N)N)C(=O)N[C@@H](CC(N)=O)C(=O)N[C@@H](CC(C)C)C(=O)N[C@H](C(=O)N1CCC[C@H]1C(=O)N[C@@H](CCCNC(=N)N)C(=O)N[C@H](C(=O)N[C@@H](CCC(=O)O)C(=O)N[C@@H](CO)C(=O)O)[C@@H](C)O)C(C)C)[C@@H](C)CC)C(C)C)[C@@H](C)CC [LL-37, reference compound] | 1.3 ± 0.2 µg/mL | 1.2 ± 0.3 µg/mL | 1.6 ± 0.5 µg/mL | 4/8 | 6/8 | 84 ± 17% | >18 µM | >18^e μM | 12 µM (≈ 53.9 µg/mL) | >18^e μM | 3 µM (≈ 13.5 µg/mL) | 7^b μM | 3 µM (≈ 13.5 µg/mL) | 14^d μM | activity against A. niger ([6]; up to 18 μM): no activity |
| Ac-IGKEFKRIVERIKRFLRELVRPLR-NH2 [Compound P60.4Ac] |  |  |  |  |  |  | 18 µM | >18^e μM | 6 µM | 6^f μM | 2 µM | 3^c μM | 3 µM | 6^b μM | clinical signs, body weight, hematology, clinical biochemistry and macroscopic examination, MTD phase (rats; [19]): no clear peptide related findings; mortality, MTD phase (rats; [19]): no mortality occurred; clinical signs and body weight, dose escalation phase (rats; [20]): no clear deviations; mortality, dose escalation phase (rats; [20]): no mortality occurred; ABR threshold change (guinea pigs; P60.4-Ac 2 mg/ml in PBS, 22 days after surgery): −7 dB; ABR threshold change (guinea pigs; P60.4-Ac as formulation II, both animals, 22 days): 1 dB; skin irritation (rabbits [9]): no skin irritation was detectable; time to complete resolution of conjunctival redness after instillation (rabbits [10]; 0.1 ml peptide solution 2 mg/ml into one eye): ≤ 24 h; eye irritation finding after ophthalmic instillation (rabbits [10]; 0.1 ml phosphate buffered (pH7.5) peptide solution 2 mg/ml into one eye): redness of the conjunctivae |
| IGKEFERIVQRIKDFLRNLVPRTE [Compound P60, 24 amino acid peptide derived from CAP18/LL-37] | 1.5 ± 0.5 µg/mL | 1.4 ± 0.1 µg/mL | 2.1 ± 0.7 µg/mL | 1/8 | 7/8 | 76 ± 39% |  |  |  |  |  |  |  |  |  |
| IGKEFKRIVERIKRFLRELVRPLR [Compound P60.4] | 1.7 ± 0.6 µg/mL | 2.1 ± 0.6 µg/mL | 2.0 ± 1.3 µg/mL | 3/8 | 2/8 | 0 ± 0% |  |  |  |  |  |  |  |  |  |
| IGKEFKRIVQRIKDFLRNLVPRTE [Compound P60.Ac] | 1.8 ± 0.8 µg/mL | 2.4 ± 0.5 µg/mL | 2.1 ± 0.1 µg/mL | 3/8 | 4/8 | 61 ± 36% |  |  |  |  |  |  |  |  |  |
